From PubChem BioAssay AID1982 (Sanford-Burnham Center for Chemical Genomics, 2009)
Calls of active or inactive are those of the source. No rule for the calls is given here.

Experiments:
Assay in all cases: kinase panel binding selectivity, selectivity assay, biochemical, KINOMEscan (AID 1982)
[1] = biological target: Serine/threonine-protein kinase MRCK alpha (Homo sapiens) (UniProt Q5VT25); settings: KINOMEscan 353-kinase binding panel, qPCR; MRCKA; at 10 µM; hits give low values
[2] = biological target: Proto-oncogene tyrosine-protein kinase ROS (Homo sapiens) (UniProt P08922); settings: KINOMEscan 353-kinase binding panel, qPCR; ROS1; at 10 µM; hits give low values
[3] = biological target: Tyrosine-protein kinase Fyn (Homo sapiens) (UniProt P06241); settings: KINOMEscan 353-kinase binding panel, qPCR, at 10 µM, hits give low values
[4] = biological target: Mitogen-activated protein kinase 9 (Homo sapiens) (UniProt P45984); settings: KINOMEscan 353-kinase binding panel, qPCR; JNK2; at 10 µM; hits give low values
[5] = biological target: Tyrosine-protein kinase Lyn (Homo sapiens) (UniProt P07948); settings: KINOMEscan 353-kinase binding panel, qPCR, at 10 µM, hits give low values
[6] = biological target: Serine/threonine-protein kinase PLK3 (Homo sapiens) (UniProt Q9H4B4); settings: KINOMEscan 353-kinase binding panel, qPCR, at 10 µM, hits give low values
[7] = biological target: Non-receptor tyrosine-protein kinase TYK2 (Homo sapiens) (UniProt P29597); settings: KINOMEscan 353-kinase binding panel, qPCR, at 10 µM, hits give low values
Chain of Non-receptor tyrosine-protein kinase TYK2 (Homo sapiens) (P29597 whole entry, looked up): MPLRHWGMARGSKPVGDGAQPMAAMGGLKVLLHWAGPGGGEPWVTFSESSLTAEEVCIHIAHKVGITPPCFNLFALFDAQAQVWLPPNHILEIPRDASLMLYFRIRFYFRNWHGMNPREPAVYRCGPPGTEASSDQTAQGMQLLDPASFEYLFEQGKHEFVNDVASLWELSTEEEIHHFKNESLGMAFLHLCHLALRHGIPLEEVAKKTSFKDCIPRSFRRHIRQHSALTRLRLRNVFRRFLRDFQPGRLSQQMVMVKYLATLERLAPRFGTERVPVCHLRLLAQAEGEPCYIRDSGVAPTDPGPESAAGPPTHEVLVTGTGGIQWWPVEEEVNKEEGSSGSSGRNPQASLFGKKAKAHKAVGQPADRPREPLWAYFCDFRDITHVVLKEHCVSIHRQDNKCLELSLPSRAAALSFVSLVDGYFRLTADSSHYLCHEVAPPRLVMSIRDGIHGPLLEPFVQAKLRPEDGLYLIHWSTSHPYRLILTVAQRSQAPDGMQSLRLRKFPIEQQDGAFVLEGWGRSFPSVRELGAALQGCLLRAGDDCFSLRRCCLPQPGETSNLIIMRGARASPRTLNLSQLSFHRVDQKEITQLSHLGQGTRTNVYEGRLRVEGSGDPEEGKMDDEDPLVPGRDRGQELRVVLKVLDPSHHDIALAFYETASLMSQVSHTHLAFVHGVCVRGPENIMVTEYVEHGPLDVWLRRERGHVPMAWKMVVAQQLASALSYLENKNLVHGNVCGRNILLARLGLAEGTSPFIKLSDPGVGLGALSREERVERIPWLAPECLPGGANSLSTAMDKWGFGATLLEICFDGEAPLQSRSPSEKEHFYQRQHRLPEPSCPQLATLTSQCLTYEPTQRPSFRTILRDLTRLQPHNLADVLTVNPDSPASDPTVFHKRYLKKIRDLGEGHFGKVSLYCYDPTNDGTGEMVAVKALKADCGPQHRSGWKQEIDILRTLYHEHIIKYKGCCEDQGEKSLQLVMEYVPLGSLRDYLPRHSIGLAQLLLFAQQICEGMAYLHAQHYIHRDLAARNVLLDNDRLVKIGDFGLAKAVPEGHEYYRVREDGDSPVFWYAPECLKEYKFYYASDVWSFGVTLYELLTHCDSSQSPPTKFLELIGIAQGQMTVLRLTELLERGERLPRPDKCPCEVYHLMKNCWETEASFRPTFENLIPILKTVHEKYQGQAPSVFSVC

IRAK3 = settings: KINOMEscan 353-kinase binding panel, qPCR, at 10 µM, hits give low values
[8] = biological target: Protein kinase C delta type (Homo sapiens) (UniProt Q05655); settings: KINOMEscan 353-kinase binding panel, qPCR; PRKCD; at 10 µM; hits give low values
CDKL2 = settings: KINOMEscan 353-kinase binding panel, qPCR, at 10 µM, hits give low values
[9] = biological target: ALK tyrosine kinase receptor (Homo sapiens) (UniProt Q9UM73); settings: KINOMEscan 353-kinase binding panel, qPCR, at 10 µM, hits give low values
Chain of ALK tyrosine kinase receptor (Homo sapiens) (Q9UM73 whole entry, looked up): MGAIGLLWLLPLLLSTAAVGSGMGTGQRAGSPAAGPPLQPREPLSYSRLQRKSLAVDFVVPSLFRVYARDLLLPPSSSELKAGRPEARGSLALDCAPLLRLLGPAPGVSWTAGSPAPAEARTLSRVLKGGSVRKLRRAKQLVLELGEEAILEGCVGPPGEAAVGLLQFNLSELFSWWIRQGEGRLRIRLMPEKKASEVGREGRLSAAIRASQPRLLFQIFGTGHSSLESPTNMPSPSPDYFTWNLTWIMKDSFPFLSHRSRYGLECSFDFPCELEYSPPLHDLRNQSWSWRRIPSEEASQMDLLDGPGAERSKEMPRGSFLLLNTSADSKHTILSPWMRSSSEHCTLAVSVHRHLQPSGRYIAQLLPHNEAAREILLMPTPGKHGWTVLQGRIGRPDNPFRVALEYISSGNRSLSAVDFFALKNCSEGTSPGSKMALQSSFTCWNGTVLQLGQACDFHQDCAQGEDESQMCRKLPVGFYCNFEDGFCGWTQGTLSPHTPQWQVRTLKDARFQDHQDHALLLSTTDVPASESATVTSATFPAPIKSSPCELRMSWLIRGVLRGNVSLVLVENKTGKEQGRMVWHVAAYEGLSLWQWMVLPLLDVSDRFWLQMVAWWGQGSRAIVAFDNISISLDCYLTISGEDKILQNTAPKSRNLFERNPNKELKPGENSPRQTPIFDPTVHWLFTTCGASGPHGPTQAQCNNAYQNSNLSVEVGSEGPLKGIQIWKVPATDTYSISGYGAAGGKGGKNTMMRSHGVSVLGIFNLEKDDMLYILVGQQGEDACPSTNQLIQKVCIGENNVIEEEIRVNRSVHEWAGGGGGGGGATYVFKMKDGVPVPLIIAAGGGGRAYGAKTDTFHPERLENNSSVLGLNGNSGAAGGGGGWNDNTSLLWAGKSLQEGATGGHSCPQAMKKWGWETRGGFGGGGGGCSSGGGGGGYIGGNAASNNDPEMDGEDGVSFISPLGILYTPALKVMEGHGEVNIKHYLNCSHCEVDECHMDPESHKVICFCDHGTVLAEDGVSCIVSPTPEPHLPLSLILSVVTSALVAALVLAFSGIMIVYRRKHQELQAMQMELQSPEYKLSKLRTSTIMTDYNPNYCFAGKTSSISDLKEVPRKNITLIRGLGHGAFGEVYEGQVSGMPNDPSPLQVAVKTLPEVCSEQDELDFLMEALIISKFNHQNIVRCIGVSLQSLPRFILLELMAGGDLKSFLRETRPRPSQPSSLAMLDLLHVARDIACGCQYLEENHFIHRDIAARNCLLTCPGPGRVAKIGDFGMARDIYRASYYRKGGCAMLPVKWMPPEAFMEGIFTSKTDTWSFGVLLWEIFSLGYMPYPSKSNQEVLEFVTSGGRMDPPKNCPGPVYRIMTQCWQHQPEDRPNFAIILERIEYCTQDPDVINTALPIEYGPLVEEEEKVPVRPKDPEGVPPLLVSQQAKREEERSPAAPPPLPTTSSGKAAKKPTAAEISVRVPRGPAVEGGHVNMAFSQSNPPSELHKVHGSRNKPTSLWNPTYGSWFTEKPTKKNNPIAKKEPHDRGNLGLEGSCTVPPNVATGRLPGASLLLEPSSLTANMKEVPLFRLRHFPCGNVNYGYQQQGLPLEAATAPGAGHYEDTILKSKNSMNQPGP

[10] = biological target: Calcium/calmodulin-dependent protein kinase type II subunit beta (Homo sapiens) (UniProt Q13554); settings: KINOMEscan 353-kinase binding panel, qPCR; CAMK2B; at 10 µM; hits give low values
[11] = biological target: Calcium/calmodulin-dependent protein kinase type 1 (Homo sapiens) (UniProt Q14012); settings: KINOMEscan 353-kinase binding panel, qPCR; CAMK1; at 10 µM; hits give low values
NDR2 = settings: KINOMEscan 353-kinase binding panel, qPCR, at 10 µM, hits give low values
[12] = biological target: Serine/threonine-protein kinase D1 (Homo sapiens) (UniProt Q15139); settings: KINOMEscan 353-kinase binding panel, qPCR; PRKD1; at 10 µM; hits give low values
STK35 = settings: KINOMEscan 353-kinase binding panel, qPCR, at 10 µM, hits give low values
PIK3CB = settings: KINOMEscan 353-kinase binding panel, qPCR, at 10 µM, hits give low values
[13] = biological target: Proto-oncogene tyrosine-protein kinase Src (Homo sapiens) (UniProt P12931); settings: KINOMEscan 353-kinase binding panel, qPCR, at 10 µM, hits give low values
TAK1 = settings: KINOMEscan 353-kinase binding panel, qPCR, at 10 µM, hits give low values
[14] = biological target: Calcium/calmodulin-dependent protein kinase type II subunit delta (Homo sapiens) (UniProt Q13557); settings: KINOMEscan 353-kinase binding panel, qPCR; CAMK2D; at 10 µM; hits give low values
MST4 = settings: KINOMEscan 353-kinase binding panel, qPCR, at 10 µM, hits give low values
[15] = biological target: Tyrosine-protein kinase Srms (Homo sapiens) (UniProt Q9H3Y6); settings: KINOMEscan 353-kinase binding panel, qPCR, at 10 µM, hits give low values
Chain of Tyrosine-protein kinase Srms (Homo sapiens) (Q9H3Y6 whole entry, looked up): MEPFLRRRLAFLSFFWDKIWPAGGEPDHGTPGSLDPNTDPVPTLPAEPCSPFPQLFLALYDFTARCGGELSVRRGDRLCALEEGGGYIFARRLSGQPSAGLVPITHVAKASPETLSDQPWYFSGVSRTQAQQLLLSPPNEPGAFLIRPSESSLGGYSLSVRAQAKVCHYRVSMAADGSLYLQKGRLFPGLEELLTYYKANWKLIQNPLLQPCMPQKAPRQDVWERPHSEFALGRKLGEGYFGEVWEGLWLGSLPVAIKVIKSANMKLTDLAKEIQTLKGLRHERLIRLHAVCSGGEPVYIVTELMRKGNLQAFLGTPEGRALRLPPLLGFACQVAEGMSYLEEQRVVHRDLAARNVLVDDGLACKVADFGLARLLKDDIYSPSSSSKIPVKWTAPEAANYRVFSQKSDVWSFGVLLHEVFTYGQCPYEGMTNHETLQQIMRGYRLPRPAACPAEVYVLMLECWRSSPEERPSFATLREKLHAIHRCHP

ABL2 = settings: KINOMEscan 353-kinase binding panel, qPCR, at 10 µM, hits give low values
RIOK2 = settings: KINOMEscan 353-kinase binding panel, qPCR, at 10 µM, hits give low values
BMPR1B = settings: KINOMEscan 353-kinase binding panel, qPCR, at 10 µM, hits give low values
[16] = biological target: Aurora kinase A (Homo sapiens) (UniProt O14965); settings: KINOMEscan 353-kinase binding panel, qPCR; AURKA; at 10 µM; hits give low values
Chain of Aurora kinase A (Homo sapiens) (O14965 whole entry, looked up): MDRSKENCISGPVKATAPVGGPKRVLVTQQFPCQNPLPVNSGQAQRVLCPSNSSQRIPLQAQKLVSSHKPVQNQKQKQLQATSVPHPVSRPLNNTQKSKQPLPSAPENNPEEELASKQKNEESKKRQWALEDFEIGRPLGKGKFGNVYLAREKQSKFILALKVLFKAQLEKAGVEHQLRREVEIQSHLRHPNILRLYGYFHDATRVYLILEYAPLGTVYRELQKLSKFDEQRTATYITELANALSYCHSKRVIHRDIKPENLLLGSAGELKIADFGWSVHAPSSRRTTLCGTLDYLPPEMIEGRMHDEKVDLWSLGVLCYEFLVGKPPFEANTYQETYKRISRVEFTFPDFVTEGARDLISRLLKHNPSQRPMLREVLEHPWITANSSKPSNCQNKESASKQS

SRPK2 = settings: KINOMEscan 353-kinase binding panel, qPCR, at 10 µM, hits give low values
[17] = biological target: Tyrosine-protein kinase receptor TYRO3 (Homo sapiens) (UniProt Q06418); settings: KINOMEscan 353-kinase binding panel, qPCR, at 10 µM, hits give low values
Chain of Tyrosine-protein kinase receptor TYRO3 (Homo sapiens) (Q06418 whole entry, looked up): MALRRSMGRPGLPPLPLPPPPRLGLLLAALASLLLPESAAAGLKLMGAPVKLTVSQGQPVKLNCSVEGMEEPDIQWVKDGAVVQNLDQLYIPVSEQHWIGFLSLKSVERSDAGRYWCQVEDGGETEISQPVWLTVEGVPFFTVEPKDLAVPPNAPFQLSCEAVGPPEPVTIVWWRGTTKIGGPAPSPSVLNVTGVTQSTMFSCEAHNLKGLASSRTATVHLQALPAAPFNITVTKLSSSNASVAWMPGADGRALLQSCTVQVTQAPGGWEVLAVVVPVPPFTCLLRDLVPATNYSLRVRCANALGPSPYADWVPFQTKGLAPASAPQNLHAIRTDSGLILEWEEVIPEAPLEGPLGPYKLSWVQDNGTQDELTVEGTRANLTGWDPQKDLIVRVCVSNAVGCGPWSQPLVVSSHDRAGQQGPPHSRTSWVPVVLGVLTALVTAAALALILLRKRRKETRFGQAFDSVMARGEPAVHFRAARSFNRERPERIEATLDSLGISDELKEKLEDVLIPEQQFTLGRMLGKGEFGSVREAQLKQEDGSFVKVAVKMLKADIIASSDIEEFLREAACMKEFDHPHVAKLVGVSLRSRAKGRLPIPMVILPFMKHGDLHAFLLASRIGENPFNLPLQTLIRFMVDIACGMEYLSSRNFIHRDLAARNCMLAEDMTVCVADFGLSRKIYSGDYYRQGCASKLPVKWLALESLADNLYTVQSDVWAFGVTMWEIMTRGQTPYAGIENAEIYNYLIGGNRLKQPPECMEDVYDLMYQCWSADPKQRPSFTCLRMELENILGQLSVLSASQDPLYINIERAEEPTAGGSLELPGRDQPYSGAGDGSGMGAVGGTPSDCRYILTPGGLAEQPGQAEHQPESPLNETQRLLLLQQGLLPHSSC

HIPK1 = settings: KINOMEscan 353-kinase binding panel, qPCR, at 10 µM, hits give low values
[18] = biological target: Cyclin-dependent kinase 9 (Homo sapiens) (UniProt P50750); settings: KINOMEscan 353-kinase binding panel, qPCR; CDK9; at 10 µM; hits give low values
[19] = biological target: Cyclin-dependent kinase 8 (Homo sapiens) (UniProt P49336); settings: KINOMEscan 353-kinase binding panel, qPCR; CDK8; at 10 µM; hits give low values
Chain of Cyclin-dependent kinase 8 (Homo sapiens) (P49336 whole entry, looked up): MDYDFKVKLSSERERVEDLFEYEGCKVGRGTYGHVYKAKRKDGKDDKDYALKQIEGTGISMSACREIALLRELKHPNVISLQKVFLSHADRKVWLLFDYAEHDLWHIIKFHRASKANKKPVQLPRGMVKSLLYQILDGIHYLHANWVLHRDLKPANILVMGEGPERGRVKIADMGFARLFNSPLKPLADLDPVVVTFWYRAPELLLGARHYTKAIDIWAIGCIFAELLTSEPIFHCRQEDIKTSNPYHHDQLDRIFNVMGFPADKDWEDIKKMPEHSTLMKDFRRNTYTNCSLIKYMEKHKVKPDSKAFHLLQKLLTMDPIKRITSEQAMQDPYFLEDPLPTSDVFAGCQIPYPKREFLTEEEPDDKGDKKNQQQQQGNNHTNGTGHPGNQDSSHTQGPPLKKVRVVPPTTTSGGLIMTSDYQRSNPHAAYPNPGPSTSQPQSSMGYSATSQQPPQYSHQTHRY

EPHB4 = settings: KINOMEscan 353-kinase binding panel, qPCR, at 10 µM, hits give low values
ULK2 = settings: KINOMEscan 353-kinase binding panel, qPCR, at 10 µM, hits give low values
[20] = biological target: Serine/threonine-protein kinase Nek2 (Homo sapiens) (UniProt P51955); settings: KINOMEscan 353-kinase binding panel, qPCR, at 10 µM, hits give low values
DLK = settings: KINOMEscan 353-kinase binding panel, qPCR, at 10 µM, hits give low values

percent of control binding [1]: 90% (inactive)
percent of control binding [2]: 100% (inactive)
percent of control binding [3]: 82% (inactive)
percent of control binding [4]: 100% (inactive)
percent of control binding [5]: 88% (inactive)
percent of control binding [6]: 100% (inactive)
percent of control binding ([7]; TYK2 Kin.Dom.1): 84% (inactive)
percent of control binding ([7]; TYK2 Kin.Dom.2): 98% (inactive)
percent of control binding (IRAK3): 100% (inactive)
percent of control binding [8]: 100% (inactive)
percent of control binding (CDKL2): 96% (inactive)
percent of control binding [9]: 100% (inactive)
percent of control binding [10]: 100% (inactive)
percent of control binding [11]: 100% (inactive)
percent of control binding (NDR2): 100% (inactive)
percent of control binding [12]: 100% (inactive)
percent of control binding (STK35): 100% (inactive)
percent of control binding (PIK3CB): 79% (inactive)
percent of control binding [13]: 100% (inactive)
percent of control binding (TAK1): 100% (inactive)
percent of control binding [14]: 89% (inactive)
percent of control binding (MST4): 100% (inactive)
percent of control binding [15]: 100% (inactive)
percent of control binding (ABL2): 85% (inactive)
percent of control binding (RIOK2): 96% (inactive)
percent of control binding (BMPR1B): 100% (inactive)
percent of control binding [16]: 96% (inactive)
percent of control binding (SRPK2): 100% (inactive)
percent of control binding [17]: 100% (inactive)
percent of control binding (HIPK1): 100% (inactive)
percent of control binding [18]: 91% (inactive)
percent of control binding [19]: 93% (inactive)
percent of control binding (EPHB4): 98% (inactive)
percent of control binding (ULK2): 84% (inactive)
percent of control binding [20]: 84% (inactive)
percent of control binding (DLK): 82% (inactive)
SMILES: Cc1cc2nc(NCCCO)n(CC(=O)c3cc(C(C)(C)C)c(O)c(C(C)(C)C)c3)c2cc1C
